Results from patent publication US6461997B1, “Triazole sulfones having herbicidal activity” (Monsanto Technology LLC, priority 1999, dated 2002).

What follows are molecules tested on VERPE (creeping speedwell) (assay: Pre-emergence herbicidal activity, cool season). Details: lowest tested rate with 80% or greater inhibition; rates 300, 100, 30, 10 g/ha; about 14 days.
Assay type: in vivo, Veronica persicaria
Outline: (§1)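 Seeds sown in sterilised fertilised topsoil received surface-applied compound in 50:50 acetone/water, typically at 300, 100, 30 and 10 g/ha, then greenhouse-grown at 30/21° C (warm-season species) or 18/13° C (cool-season species). Percent inhibition versus untreated plants was scored at about 14 days, giving GR80; an asterisk marks activity short of 80% at the top rate.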

Row | Structure (SMILES) | Pre-emergence activity GR80, VERPE [g/ha]
1 | CCSC(F)(F)S(=O)(=O)c1ncn(C(=O)N(C)OC)n1 [Example 57] | 10
2 | CCCN(CC)C(=O)n1cnc(S(=O)(=O)C(F)F)n1 [Example 28] | 10

These molecules were tested on SASKR (russian thistle) (assay: Pre-emergence herbicidal activity, cool season). Details: lowest tested rate with 80% or greater inhibition; rates 300, 100, 30, 10 g/ha; about 14 days.
Assay type: in vivo, Salsola kali
Outline: as §1

Row | Structure (SMILES) | Pre-emergence activity GR80, SASKR [g/ha]
3 | CCSC(F)(F)S(=O)(=O)c1ncn(C(=O)N(C)OC)n1 [Example 57] | 30
4 | CCCN(CC)C(=O)n1cnc(S(=O)(=O)C(F)F)n1 [Example 28] | 30

These molecules were tested on BRAPP (broadleaf signalgrass) (assay: Pre-emergence herbicidal activity, warm season). Details: GR80 = lowest tested rate (300, 100, 30, 10 g/ha) with 80% or greater inhibition; approx. 14 days after treating; 30/21° C.
Assay type: in vivo, Brachiaria platyphylla
Experimental: (§2) Tables 5 to 8 summarize results of tests conducted as described below to determine the pre-emergence herbicidal activity, in the form of a GR80 value, of illustrative compounds of this invention. […] Compounds of the invention were typically applied at rates of 300, 100, 30, and 10 g/ha. Where herbicidal activity was evident but 80% inhibition was not achieved at the highest rate tested, an asterisk (*) is shown in the following tables.
(§3) The pre-emergence tests were conducted by the following procedure. Topsoil was sieved to pass through a 1.27 cm screen. Fertilizer was added to the topsoil and the mixture was then sterilized by heating. The topsoil mixture was placed in a pot and compacted to a depth of 1.0 to 1.25 cm from the top of the pot. Seeds of each of several monocotyledonous and dicotyledonous annual plant species were placed on top of the soil. Additional soil was subsequently placed over the seeds to level-fill the pot. A known amount of each test compound dissolved or suspended in an appropriate organic solvent was diluted with a 50:50 mix of acetone and water and applied to the surface of the soil. After treatment the plants were placed in a greenhouse where they received 0.64 cm of overhead irrigation. All subsequent watering consisted of a light overhead mist and/or subirrigation as needed for germination and growth. Tables 5 and 6 below relate to warm season plant species which were placed after pre-emergence treatment in a greenhouse with a 30/21° C. day/night temperature regime. Tables 7 and 8 below relates to cool season plant species placed after pre-emergence treatment in a greenhouse or growth chamber with an 18/13° C. day/night temperature regime.
(§4) Approximately 14 days after planting and treating, the plants were observed and herbicidal efficacy recorded as percent inhibition by comparison with untreated plants.
(§5) The plant species usually regarded as weeds which were utilized in the tests are identified in the tables below according to the following legend, in which “d” indicates a dicotyledonous species and “m” a monocotyledonous species. All monocotyledonous species included in the tests herein are grasses.

Row | Structure (SMILES) | Pre-emergence activity (GR80) BRAPP [g/ha]
5 | CCCN(CC)C(=O)n1cnc(S(=O)(=O)C(F)F)n1 [Example 28] | 300

Each molecule was assayed on SINAR (wild mustard) (assay: Pre-emergence herbicidal activity, cool season). Details: lowest tested rate with 80% or greater inhibition; rates 300, 100, 30, 10 g/ha; about 14 days.
Assay type: in vivo, Sinapis arvensis
Outline: as §1

Row | Structure (SMILES) | Pre-emergence activity GR80, SINAR [g/ha]
6 | CCSC(F)(F)S(=O)(=O)c1ncn(C(=O)N(C)OC)n1 [Example 57] | 30
7 | CCCN(CC)C(=O)n1cnc(S(=O)(=O)C(F)F)n1 [Example 28] | 10

Each molecule was assayed on GALAP (catchweed bedstraw) (assay: Pre-emergence herbicidal activity, cool season). Details: lowest tested rate with 80% or greater inhibition; rates 300, 100, 30, 10 g/ha; about 14 days.
Assay type: in vivo, Galium aparine
Outline: as §1

Row | Structure (SMILES) | Pre-emergence activity GR80, GALAP [g/ha]
8 | CCSC(F)(F)S(=O)(=O)c1ncn(C(=O)N(C)OC)n1 [Example 57] | 300
9 | CCCN(CC)C(=O)n1cnc(S(=O)(=O)C(F)F)n1 [Example 28] | 30

The molecules below were run on LAMPU (purple deadnettle) (assay: Pre-emergence herbicidal activity, cool season). Details: lowest tested rate with 80% or greater inhibition; rates 300, 100, 30, 10 g/ha; about 14 days.
Assay type: in vivo, Lamium purpureum
Outline: as §1

Row | Structure (SMILES) | Pre-emergence activity GR80, LAMPU
10 | CCSC(F)(F)S(=O)(=O)c1ncn(C(=O)N(C)OC)n1 [Example 57] | [empty]
11 | CCCN(CC)C(=O)n1cnc(S(=O)(=O)C(F)F)n1 [Example 28] | 30 g/ha

Each molecule was assayed on DIGSA (large crabgrass) (assay: Pre-emergence herbicidal activity, warm season). Details: GR80 = lowest tested rate (300, 100, 30, 10 g/ha) with 80% or greater inhibition; approx. 14 days after treating; 30/21° C.
Assay type: in vivo, Digitaria sanguinalis
Experimental: as §2, §3, §4, §5

Row | Structure (SMILES) | Pre-emergence activity (GR80) DIGSA [g/ha]
12 | CCSC(F)(F)S(=O)(=O)c1ncn(C(=O)N(C)OC)n1 [Example 57] | 300
13 | CCCN(CC)C(=O)n1cnc(S(=O)(=O)C(F)F)n1 [Example 28] | 300

What follows are molecules tested on STEME (common chickweed) (assay: Pre-emergence herbicidal activity, cool season). Details: lowest tested rate with 80% or greater inhibition; rates 300, 100, 30, 10 g/ha; about 14 days.
Assay type: in vivo, Stellaria media
Outline: as §1

Row | Structure (SMILES) | Pre-emergence activity GR80, STEME [g/ha]
14 | CCSC(F)(F)S(=O)(=O)c1ncn(C(=O)N(C)OC)n1 [Example 57] | 30
15 | CCCN(CC)C(=O)n1cnc(S(=O)(=O)C(F)F)n1 [Example 28] | 10

What follows are molecules tested on ALOMY (blackgrass) (assay: Pre-emergence herbicidal activity, cool season). Details: GR80 = lowest tested rate (300, 100, 30, 10 g/ha) with 80% or greater inhibition; approx. 14 days after treating; 18/13° C.
Assay type: in vivo, Alopecurus myosuroides
Experimental: as §2, §3, §4, §5

Row | Structure (SMILES) | Pre-emergence activity (GR80) ALOMY [g/ha]
16 | CCSC(F)(F)S(=O)(=O)c1ncn(C(=O)N(C)OC)n1 [Example 57] | 300
17 | CCCN(CC)C(=O)n1cnc(S(=O)(=O)C(F)F)n1 [Example 28] | 30

The molecules below were run on AMARE (redroot pigweed) (assay: Pre-emergence herbicidal activity, warm season). Details: GR80 = lowest tested rate (300, 100, 30, 10 g/ha) with 80% or greater inhibition; approx. 14 days after treating; 30/21° C.
Assay type: in vivo, Amaranthus retroflexus
Experimental: as §2, §3, §4, §5

Row | Structure (SMILES) | Pre-emergence activity (GR80) AMARE [g/ha]
18 | CCCN(CC)C(=O)n1cnc(S(=O)(=O)C(F)F)n1 [Example 28] | 300

Each molecule was assayed on POLCO (wild buckwheat) (assay: Pre-emergence herbicidal activity, cool season). Details: lowest tested rate with 80% or greater inhibition; rates 300, 100, 30, 10 g/ha; about 14 days.
Assay type: in vivo, Polygonum convolvulus
Outline: as §1

Row | Structure (SMILES) | Pre-emergence activity GR80, POLCO
19 | CCSC(F)(F)S(=O)(=O)c1ncn(C(=O)N(C)OC)n1 [Example 57] | 100 g/ha
20 | CCCN(CC)C(=O)n1cnc(S(=O)(=O)C(F)F)n1 [Example 28] | [empty]

The molecules below were run on AGSST (creeping bentgrass) (assay: Pre-emergence herbicidal activity, cool season). Details: GR80 = lowest tested rate (300, 100, 30, 10 g/ha) with 80% or greater inhibition; approx. 14 days after treating; 18/13° C.
Assay type: in vivo, Agrostis stolonifera
Outline: as §1

Row | Structure (SMILES) | Pre-emergence activity (GR80) AGSST [g/ha]
21 | CCCN(CC)C(=O)n1cnc(S(=O)(=O)C(F)F)n1 [Example 28] | 30

What follows are molecules tested on PANMI (wild proso millet) (assay: Pre-emergence herbicidal activity, warm season). Details: GR80 = lowest tested rate (300, 100, 30, 10 g/ha) with 80% or greater inhibition; approx. 14 days after treating; 30/21° C.
Assay type: in vivo, Panicum miliaceum
Outline: as §1

Row | Structure (SMILES) | Pre-emergence activity (GR80) PANMI [g/ha]
22 | CCCN(CC)C(=O)n1cnc(S(=O)(=O)C(F)F)n1 [Example 28] | 300

What follows are molecules tested on LOLMG (annual ryegrass) (assay: Pre-emergence herbicidal activity, cool season). Details: GR80 = lowest tested rate (300, 100, 30, 10 g/ha) with 80% or greater inhibition; approx. 14 days after treating; 18/13° C.
Assay type: in vivo, Lolium multiflorum
Experimental: as §2, §3, §4, §5

Row | Structure (SMILES) | Pre-emergence activity (GR80) LOLMG [g/ha]
23 | CCSC(F)(F)S(=O)(=O)c1ncn(C(=O)N(C)OC)n1 [Example 57] | 30
24 | CCCN(CC)C(=O)n1cnc(S(=O)(=O)C(F)F)n1 [Example 28] | 300

What follows are molecules tested on SETVI (green foxtail) (assay: Pre-emergence herbicidal activity, cool season). Details: GR80 = lowest tested rate (300, 100, 30, 10 g/ha) with 80% or greater inhibition; approx. 14 days after treating; 18/13° C.
Assay type: in vivo, Setaria viridis
Outline: as §1

Row | Structure (SMILES) | Pre-emergence activity (GR80) SETVI [g/ha]
25 | CCSC(F)(F)S(=O)(=O)c1ncn(C(=O)N(C)OC)n1 [Example 57] | 300
26 | CCCN(CC)C(=O)n1cnc(S(=O)(=O)C(F)F)n1 [Example 28] | 30
